Measurements published in US4234736A, “Antiandrogenic and schistosomicidal imidazolidine derivatives” (Hoffmann-La Roche Inc., priority 1977, dated 1980).
Values joined by “and” are separate entries in the source; they are usually repeats but may differ in a detail not shown here. Equal entries are not always repeated.

Assays:
[1] = system: ventral prostate; assay: Antiandrogenic test: ventral prostate weight in testosterone propionate-treated rats; assay type: in vivo, rat; conditions: sterilized male rats, 5 per group; s.c. daily for 7 days; compound 10 mg/kg + testosterone propionate 0.5 mg/kg, or testosterone propionate 0.5 mg/kg alone
Protocol: (§1) The antiandrogenic activity of the compositions of this invention can be determined in the following test:
(§2) 10 mg. per kg of the composition together with 0.5 mg. per kg. of testosterone propionate are administered s.c. daily for 7 days to each of 5 male, sterilized rats. Two control groups of 5 rats each were also used. One control group received no treatment. The second control group received only 0.5 mg. per kg. of testosterone propionate.
(§3) Testosterone propionate causes an increase in weight in the ventral prostrate and the seminal vesicle. Thus, a decrease in weight in the ventral prostrate and the seminal vesicle when a composition containing a compound of formula I is given to the rats in combination with testosterone propionate is a measure of the antiandrogenic activity of that compound.

[2] = system: seminal vesicle; assay: Antiandrogenic test: seminal vesicle weight in testosterone propionate-treated rats; assay type: in vivo, rat; conditions: sterilized male rats, 5 per group; s.c. daily for 7 days; compound 10 mg/kg + testosterone propionate 0.5 mg/kg, or testosterone propionate 0.5 mg/kg alone
Protocol: as §1, §2, §3

[3] = system: Schistosoma mansoni; assay: Schistosomicidal activity in infected mice (VD50); assay type: in vivo; conditions: po, 1008 h, p.o., administered 5 times (5 successive days), from 42 days after infection, Probit method, read-out: VD50 (vermicidal dose 50%: the dose which kills 50% of the worm pairs)
Protocol: Mice were infected subcutaneously with 60 cercariae of Schistosoma mansoni. 42 days after the infection, the animals were treated perorally on 5 successive days with the compositions to be tested 5-10 mice were used for each composition and dosage rate (mg/kg). 10 untreated mice serve as the control. The mice were autopsied either 6 days or 2-3 weeks after conclusion of the treatment. Worm pairs in mesenteric veins, the portal vein and the liver were removed and counted. The percent distribution of the worm pairs in mesenteric veins, the portal vein and the liver was calculated and the condition of the worms (living and dead) recorded. The schistosomicidal activity of the compositions containing a compound of formula I is shown both by an increased proportion of worms in the vessels of the liver and in the appearance of dead worms.
For the evaluation, the percentage proportions of living and dead worm pairs in the vessels of the liver both in infected, treated animals and in infected but untreated control animals were compared. The determination of the VD50 (vermicidal dose 50%: the dose which kills 50% of the worm pairs) is carried out by the Probit method.

[4] = LD50 (acute toxicity), p.o.; conditions: in vivo, po, species not given

Compound: CC1(C)NC(=O)N(c2ccc(Cl)c(Cl)c2)C1=O [3-(3,4-Dichloro-phenyl)-5,5-dimethyl-hydantoin]
- Ventral prostate weight [1]: 36 ± 4 mg
- Seminal vesicle weight [2]: 29 ± 2 mg
- ED50 [3]: 58 mg/kg
- LD50 [4]: 2500 to 5000 mg/kg

Compound: COC(=O)C(C)(C)NC(=O)Nc1ccc(Cl)c(C(F)(F)F)c1 [N-[(3-Trifluoromethyl-4-chloro-phenyl)-carbamoyl]-2-methylalanine methyl ester]
- Ventral prostate weight [1]: 61 ± 6 mg
- Seminal vesicle weight [2]: 47 ± 11 mg
- ED50 [3]: 74 mg/kg
- LD50 [4]: > 5000 mg/kg

Compound: CC1(C)NC(=O)N(c2ccc(Cl)cc2)C1=O [3-(4-Chloro-phenyl)-5,5-dimethyl-hydantoin]
- ED50 [3]: 77 mg/kg
- LD50 [4]: 1250 to 2500 mg/kg

Compound: CC1(C)NC(=O)N(c2ccc(F)cc2)C1=O [3-(4-Fluoro-phenyl)-5,5-dimethyl-hydantoin]
- ED50 [3]: 69 mg/kg
- LD50 [4]: 600 to 1200 mg/kg

Compound: CC1(C)NC(=O)N(c2cccc(C(F)(F)F)c2)C1=O [3-(3-Trifluoromethyl-phenyl)-5,5-dimethyl-hydantoin]
- LD50 [4]: 625 to 1250 mg/kg

Compound: CCC(=O)O[C@H]1CC[C@H]2[C@@H]3CCC4=CC(=O)CC[C@]4(C)[C@H]3CC[C@]12C [Testosterone propionate, reference compound]
- Ventral prostate weight [1]: 140 ± 11 mg and 121 ± 13 mg
- Seminal vesicle weight [2]: 88 ± 5 mg and 100 ± 9 mg
